Assay results: article PMC8533202, “Design of Inhibitors of the Intrinsically Disordered Protein NUPR1: Balance between Drug Affinity and Target Function” (Biomolecules, 2021)
“And” between values parts separate entries of the source, which are not always exact repeats. Equal entries are not always repeated. Where two headings read alike, the source gives them in different places.

Tests used:
MiaPaCa-2 cells [1] = system: MiaPaCa-2 cells; parameters: method as in PMID 30920390; details: control, previously obtained; cited from earlier work
PDAC001T cells [2] = system: PDAC001T cells; parameters: method as in PMID 30920390; details: control, previously obtained; cited from earlier work
PDAC082T cells [3] = system: PDAC082T cells; parameters: method as in PMID 30920390; details: control, previously obtained; cited from earlier work
PDAC089T cells [4] = system: PDAC089T cells; parameters: method as in PMID 30920390; details: control, previously obtained; cited from earlier work
PDAC115T cells [5] = system: PDAC115T cells; parameters: method as in PMID 30920390; details: control, previously obtained; cited from earlier work
PDAC081T cells [6] = system: PDAC081T cells; parameters: method as in PMID 30920390; details: control, previously obtained; cited from earlier work
NUPR1 [7] = biological target: T1, NUPR1 (Homo sapiens, UniProt O60356); parameters: method as in PMID 28054562; details: molecular scaffold of TFP; cited from earlier work
T1 construct: made in house
T1 sequence (O60356 1-82): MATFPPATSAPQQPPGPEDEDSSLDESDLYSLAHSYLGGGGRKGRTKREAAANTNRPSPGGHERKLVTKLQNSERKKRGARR

PDAC088T cells [8] = system: PDAC088T cells; parameters: method as in PMID 30920390; details: control, previously obtained; cited from earlier work
NUPR1 [9] = biological target: T1, NUPR1; parameters: method as in PMID 30920390; details: ITC; cited from earlier work
PDAC021T cells [10] = system: PDAC021T cells; parameters: method as in PMID 30920390; details: control, previously obtained; cited from earlier work
PDAC012T cells [11] = system: PDAC012T cells; parameters: method as in PMID 30920390; details: control, previously obtained; cited from earlier work
PDAC087T cells [12] = system: PDAC087T cells; parameters: method as in PMID 30920390; details: control, previously obtained; cited from earlier work
PDAC082T cells [13] = assay: Cell viability assay (PrestoBlue); type: cell-based; details: Homo sapiens; PDAC082T (classical subtype), 72 h
Excerpt: (§1) Primary pancreatic cancer cells PDAC001T, PDAC012T, PDAC021T, PDAC081T, PDAC082T, PDAC087T, PDAC088T, PDAC089T, and PDAC115T were obtained from the PaCaOmics clinical trial registered at www.clinicaltrials.gov (accessed on 2 October 2021) with registration number NCT01692873. We included PDAC samples from both echoendoscopic ultrasound-guided fine-needle (EUS-FNA) biopsies for patients with unresectable tumors and from surgical specimens for patients undergoing surgery. The tumor samples of these patients were used to generate patient-derived xenograft in nude mice as previously reported. Xenografts obtained from mice were split into several small pieces and used for cell culture in a biosafety chamber: after fine mincing, they were treated with collagenase type V (ref C9263; Sigma-Aldrich, St. Louis, MO, USA) and trypsin/EDTA (ref 25200-056; Gibco, Life Technologies, Grand Island, NY, USA) and were suspended in Dulbecco’s modified Eagle’s medium supplemented with 1% w/w penicillin/streptomycin (Gibco, Life Technologies, Paisley, UK) and 10% fetal bovine serum (Lonza Inc., Walkersville, MD, USA). After centrifugation, cells were resuspended in serum-free ductal media adapted from Schreiber et al. at 37 °C in a 5% CO2 incubator. Amplified cells were stored in liquid nitrogen as previously reported. Cells were weaned from antibiotics for ≥48 h before testing.
(§2) Cell viability was evaluated in ten pancreatic cancer cell lines, including MiaPaCa-2, and nine primary pancreatic cancer-derived cell lines: PDAC001T, PDAC012T, PDAC021T, PDAC081T, PDAC082T, PDAC087T, PDAC088T, PDAC089T, and PDAC115T. MiaPaCa-2 cells were obtained from ATCC (Manassas, VA, USA) and maintained in DMEM (Invitrogen, Cergy-Pontoise, France), supplemented with 10% […] at 37 °C with 5% CO2. The primary pancreatic cancer-derived cells were cultured in serum free ductal media (SFDM) following a procedure adapted from those previously described, without antibiotic, and incubated at 37 °C in a 5% CO2 incubator. Cells were plated in 96-well plates (5000 cells/well) overnight. Then, the media were supplemented with the compounds to be tested at 0–100 µM concentration, and the samples were incubated for another additional 72 h before performing the measurement. Cell viability was estimated after addition of PrestoBlue™ reagent (Life Technologies, Paris, France) for 3 h according to the PrestoBlue™ cell viability reagent protocol provided by the supplier. Cell viability was normalized when comparing to untreated cell rates. Experiments were performed in triplicate and each set was repeated three times, with similar results.

PDAC088T cells [14] = assay: Cell viability assay (PrestoBlue); type: cell-based; details: Homo sapiens; PDAC088T (classical subtype), 72 h
Excerpt: as §1, §2

PDAC021T cells [15] = assay: Cell viability assay (PrestoBlue); type: cell-based; details: Homo sapiens; PDAC021T (basal subtype), 72 h
Excerpt: as §1, §2

PDAC012T cells [16] = assay: Cell viability assay (PrestoBlue); type: cell-based; details: Homo sapiens; PDAC012T (classical subtype), 72 h
Excerpt: as §1, §2

PDAC087T cells [17] = assay: Cell viability assay (PrestoBlue); type: cell-based; details: Homo sapiens; PDAC087T (basal subtype), 72 h
Excerpt: as §1, §2

PDAC001T cells [18] = assay: Cell viability assay (PrestoBlue); type: cell-based; details: Homo sapiens; PDAC001T (basal subtype), 72 h
Excerpt: as §1, §2

PDAC081T cells [19] = assay: Cell viability assay (PrestoBlue); type: cell-based; details: Homo sapiens; PDAC081T (classical subtype), 72 h
Excerpt: as §1, §2

PDAC115T cells [20] = assay: Cell viability assay (PrestoBlue); type: cell-based; details: Homo sapiens; PDAC115T (basal subtype), 72 h
Excerpt: as §1, §2

PDAC089T cells [21] = assay: Cell viability assay (PrestoBlue); type: cell-based; details: Homo sapiens; PDAC089T (derived from a liver metastasis), 72 h
Excerpt: as §1, §2

NUPR1 [22] = biological target: T1, NUPR1; assay: Isothermal titration calorimetry (ITC) binding to NUPR1; details: 25 °C; for N (stoichiometry) / ΔG / ΔH / −TΔS: pH 7.0; for Ka / Kd: sodium phosphate 20 mM, pH 7.0, 2% DMSO; for Kd: read-out: Kd (=1/Ka)
Protocol: The binding of the ZZW-115-derived compounds to NUPR1 was determined as described by using a high sensitivity isothermal titration calorimeter Auto-iTC200 (MicroCal, Malvern-Panalytical, Malvern, UK). Protein samples and solutions were properly degassed. Experiments were performed with freshly prepared protein solutions at 25 °C. A solution of NUPR1 (20 μM, in sodium phosphate 20 mM, pH 7.0, 2% DMSO) in the calorimetric cell was titrated with a solution of each compound (200 μM, in sodium phosphate 20 mM pH 7.0, 2% DMSO). The inhibitors were dissolved in the same buffer used for the protein. A standard protocol was employed: 19 titrant injections with 2 μL compound solution were programmed with a time spacing of 150 s, a stirring speed of 750 rpm, and a reference power of 10 μcal/s. The heat evolved after each ligand injection was calculated from the integral of the calorimetric signal. The heat due to the binding reaction was obtained as the difference between the reaction heat and the corresponding heat of injection, the latter estimated as a constant value throughout the experiment, and included as an adjustable parameter in the analysis. Control experiments (with the compounds injected into the buffer) were performed under the same experimental conditions.
The association constant (Ka), the enthalpy change (ΔH) and the stoichiometry (n) of the binding reaction were obtained through nonlinear regression analysis of experimental data to a model assuming a single ligand binding site for the protein. Experiments were performed in replicate and data were analyzed using in-house-developed software implemented in Origin 7 (OriginLab).
The interaction between ZZW-115-Derived compounds and NUPR1 was studied by using ITC, the gold-standard technique in binding-affinity determination, to test our theoretical prediction. […] From the thermogram (thermal power as a function of time), the binding isotherm (ligand-normalized heat as a function of the molar ratio) was obtained through integration of the individual heat effect associated with injection of each ligand solution (Figure 3). We used a nonlinear least-squares regression analysis employing a model that considered a single binding site in NUPR1 to estimate binding parameters such as the dissociation constant and the binding enthalpy.

[23] = system: NUPR1 nuclear translocation; assay: NUPR1 nuclear translocation, immunofluorescence in MiaPaCa-2 cells; type: cell-based, human; details: 3 µM, 6 h (Figure 4)
Protocol: Cells (100000 cells/well) were seeded in 12-well plates on coverslips overnight and then treated with 3 μM concentration of each compound for […]. After fixation with 4% paraformaldehyde (Sigma-Aldrich, St. Quentin, Fallavier, France) for 15 min, cells were washed twice with 1x PBS and incubated 1 h with the following antibodies at 1:200 dilution: rabbit anti-NUPR1 primary antibody (homemade) or γH2AX primary antibody (ab26350, Abcam, Paris, France). After the washing steps, samples were incubated 1 h with secondary antibodies at 1:500 dilution (goat anti-rabbit Alexa Fluor 488, A27034, or goat anti-mouse Alexa Fluor 488, A28175, both from Thermo Fisher Scientific, Franklin, MA, USA). ProLong™ Gold Antifade Mountant with DAPI (P36931, Thermo Fisher Scientific) was used to stain the nucleus and seal the samples. Image acquisition of Alexa Fluor 488-derived fluorescence and DAPI staining was detected with an LSM 880 controlled by Zeiss Zen Black 63x lens. Co-localization analysis and measurements in both channels were performed by using the ImageJ Coloc 2 plugin (version 3.0.5).
MiaPaCa-2 cells were treated with representative ZZW-115-derived compounds (3 µM) for 6 h. […] DAPI staining was used to detect cell nuclei, and it was combined with the Alexa 488 fluorescence in the merged panel. […]

MiaPaCa-2 cells [24] = assay: Cell viability assay (PrestoBlue); type: cell-based, human; details: MiaPaCa-2, 72 h
Protocol: as §2

Structure (SMILES) | IC50 (MiaPaCa-2 cells [1]) | IC50 (PDAC001T cells [2]) | IC50 (PDAC082T cells [3]) | IC50 (PDAC089T cells [4]) | IC50 (PDAC115T cells [5]) | IC50 (PDAC081T cells [6]) | IC50 (PDAC088T cells [8]) | Ka (NUPR1 [9]) | N (stoichiometry) (NUPR1 [9]) | ΔG (NUPR1 [9]) | ΔH (NUPR1 [9]) | −TΔS (NUPR1 [9]) | IC50 (PDAC021T cells [10]) | IC50 (PDAC012T cells [11]) | IC50 (PDAC087T cells [12]) | IC50 (PDAC082T cells [13]) | IC50 (PDAC088T cells [14]) | IC50 (PDAC021T cells [15]) | IC50 (PDAC012T cells [16]) | IC50 (PDAC087T cells [17]) | other results
CN1CCN(CCCN2c3ccccc3Sc3ccc(C(F)(F)F)cc32)CC1 [TFP, trifluoperazine] | 9.28 µM | 12.5 µM | 21.5 µM | 8.09 µM | 10.1 µM | 2.48 µM | 15.9 µM | 1.9 ± 0.2 M^–1 × 10^5 | 1.0 ± 0.1 | −7.2 ± 0.1 kcal mol^–1 | −1.1 ± 0.4 kcal mol^–1 | −6.1 ± 0.4 kcal mol^–1 | 23.5 µM | 20.4 µM | 7.8 µM | – | – | – | – | – | calculated binding score (NUPR1 [7]): –7.0 kcal/mol
CN(C)CCN1CCN(CCCN2c3ccccc3Sc3ccc(C(F)(F)F)cc32)CC1 [ZZW-115] | 0.32 µM | 1.84 µM | 2.36 µM | 4.72 µM | 2.21 µM | 0.84 µM | 5.29 µM | 4.7 ± 0.4 M^–1 × 10^5 | 0.9 ± 0.1 | −7.7 ± 0.1 kcal mol^–1 | −0.4 ± 0.3 kcal mol^–1 | −7.3 ± 0.3 kcal mol^–1 | 2.54 µM | 2.44 µM | 3.72 µM | – | – | – | – | – | –
FC(F)(F)c1ccc2c(c1)N(CCCN1CCN(CCN3CCOCC3)CC1)c1ccccc1S2 [ZZW-132] | – | – | – | – | – | – | – | – | – | – | – | – | – | – | – | 21.1 µM | 23.6 µM | 16.5 µM | 12.2 µM | 16.6 µM | IC50 (PDAC001T cells [18]): 12.5 µM; IC50 (PDAC081T cells [19]): 1.91 µM; IC50 (PDAC115T cells [20]): 16.1 µM; IC50 (PDAC089T cells [21]): 29.1 µM; N (stoichiometry) (NUPR1 [22]): 1.2 ± 0.1; ΔG (NUPR1 [22]): −7.9 ± 0.1 kcal mol^–1; ΔH (NUPR1 [22]): 0.3 ± 0.3 kcal mol^–1; −TΔS (NUPR1 [22]): −8.2 ± 0.3 kcal mol^–1; Ka (NUPR1 [22]): 5.8 ± 0.4 M^–1 × 10^5; Kd (NUPR1 [22]): ~1.7 µM and 1.7 µM; ability to hamper NUPR1 nuclear translocation [23]: worst effect in hampering the nuclear translocation efficiency; IC50 (MiaPaCa-2 cells [24]; Homo sapiens, MIA PaCa-2, 72 h): ~1 µM; IC50 (MiaPaCa-2 cells [24]): 1.04 µM
CN(C)CCCN1CCN(CCCN2c3ccccc3Sc3ccc(C(F)(F)F)cc32)CC1 [ZZW-142] | – | – | – | – | – | – | – | – | – | – | – | – | – | – | – | 23 µM | 23.9 µM | 17 µM | 12.8 µM | 16.6 µM | IC50 (PDAC001T cells [18]): 11.9 µM; IC50 (PDAC081T cells [19]): 2.27 µM; IC50 (PDAC115T cells [20]): 14.7 µM; IC50 (PDAC089T cells [21]): 22.5 µM; N (stoichiometry) (NUPR1 [22]): 1.3 ± 0.1; ΔG (NUPR1 [22]): −7.8 ± 0.1 kcal mol^–1; ΔH (NUPR1 [22]): 0.3 ± 0.3 kcal mol^–1; −TΔS (NUPR1 [22]): −8.1 ± 0.3 kcal mol^–1; Ka (NUPR1 [22]): 4.9 ± 0.3 M^–1 × 10^5; Kd (NUPR1 [22]): 2 ± 0.2 µM; ability to hamper NUPR1 nuclear translocation [23]: worst effect in hampering the nuclear translocation efficiency; IC50 (MiaPaCa-2 cells [24]; Homo sapiens, MIA PaCa-2, 72 h): ~1 µM; IC50 (MiaPaCa-2 cells [24]): 0.95 µM
